Measurements from patent US6440997B2, “−E-2-(3,4-dichlorocinnamyl)-1-cyclopropylmethylpiperidine, and its antidiarrhoeal use” (Warner-Lambert Company, priority 1997, dated 2002).

Tests used:
[1] = test system: diarrhoea induced by the A and B toxins of C. difficile; experiment: Diarrhoea induced by the A and B toxins of C. difficile in mice; type: in vivo; settings: Clostridioides difficile, po, p.o. 1 h before A and B toxins 6 ng/mouse p.o., faecal water at 120 min, read-out: Inhibitory activity ED50, C. difficile toxins diarrhoea
Procedure: (§1) b)—diarrhoea induced by the thermostable toxin of E. coli: Nourished male NMRI mice (30-35 g) are weighed and placed in individual cages previously covered with white paper allowing the viewing of the faecal matter voided. The faeces are recovered as soon as voided and are brought together, by periods of 30 min, for 120 min. The faeces thus brought together are weighed before (fresh weight) and after (dry weight) drying at 120° C. for 24 h. The quantity of water present in the faeces is calculated as the difference (fresh weight—dry weight). The thermostable toxin of Escherichia coli (Sigma, E5763) is administered by the oral route at time zero at a dose of 600 U/mouse. The animals of the control batch receive, at time zero, an oral administration of saline. The administration of the test products is carried out by the oral route 1 h before the administration of the toxins.
c)—diarrhoea induced by the A and B toxins of C. difficile: the experimental protocol, the calculation and the expression of the results are identical to those described above. The A and B toxins of C. difficile are administered by the oral route at time zero at a dose of 6 ng/mouse.

[2] = test system: diarrhoea induced by the thermostable toxin of E. coli; experiment: Diarrhoea induced by the thermostable toxin of E. coli in mice; type: in vivo; settings: Escherichia coli, po, p.o. 1 h before toxin 600 U/mouse p.o., faecal water at 120 min, read-out: Inhibitory activity ED50, E. coli toxin diarrhoea
Procedure: as §1

[3] = test system: intestinal secretion induced by cholera toxin; experiment: animal or person; type: in vivo, rats; settings: for ED50: Rattus norvegicus, read-out: Inhibition of intestinal secretion induced by cholera toxin: ED50
[4] = test system: diarrhoea induced by Salmonella lipopolysaccharide (LPS); experiment: Diarrhoea induced by Salmonella lipopolysaccharide (LPS) in mice; settings: for ED50: Salmonella, in Mus musculus, read-out: Inhibitory activity ED50, Salmonella LPS diarrhoea; for Inhibition of diarrhoea (%): Salmonella LPS
sigma receptors = sigma receptors (Rattus norvegicus, UniProt Q9R0C9); experiment: Affinity for sigma receptors: displacement of (+)[3H]-SKF 10,047 from rat brain membrane preparation; settings: σ affinity: IC50, displacement of (+)[3H]-SKF 10,047, rat brain membrane preparation
[5] = test system: inflammatory diarrhoea caused by PGE2; settings: cited from earlier work
[6] = Toxicity study in mice by the oral route; type: in vivo
Procedure: In animals, the toxicity study was carried out in mice by the oral route. No mortality was noted up to the strongest dose studied, namely 300 mg/kg. No toxic symptoms were evident at doses lower than 100 mg/kg. Starting from this dose, symptoms were observed such as respiratory depression, trembling, convulsions, a state of prostration or of lethargy which were reversible in a lapse of time of 24 hours after treatment.

transit = experiment: Effect on the transit; type: in vivo; settings: oral route, mice

Chain of sigma receptors (Q9R0C9 whole entry): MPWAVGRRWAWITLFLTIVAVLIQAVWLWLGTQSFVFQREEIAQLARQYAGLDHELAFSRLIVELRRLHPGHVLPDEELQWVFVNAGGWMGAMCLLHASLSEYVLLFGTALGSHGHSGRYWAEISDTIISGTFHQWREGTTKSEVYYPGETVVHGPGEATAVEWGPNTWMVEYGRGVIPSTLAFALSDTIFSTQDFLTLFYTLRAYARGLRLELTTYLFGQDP

Work on Clc1ccc(C=CCC2CCCCN2CC2CC2)cc1Cl (racemic) [(+/−) parent racemate, racemic E-2-(3,4-dichlorocinnamyl)-1-cyclopropylmethylpiperidine] yielded an ED50 [1] of 0.058 mg/kg, an ED50 [2] of 0.077 mg/kg and an ED50 [3] of 1.9 mg/kg. The ED50 [4] was 0.038 mg/kg and the IC50 (sigma receptors) was 44.1 nM.
In the case of Clc1ccc(/C=C/CC2CCCCN2CC2CC2)cc1Cl (single isomer, unassigned; (+)) [(+)E-2-(3,4-dichlorocinnamyl)-1-cyclopropylmethylpiperidine], the IC50 (sigma receptors) is reported as 21.8 nM.
For CCC(C/C=C/c1ccccc1)(c1ccccc1)N(C)CC1CC1 (single isomer, unassigned; (+)) [igmesine, (+)-N-cyclopropylmethyl-N-methyldiphenyl-1,4-ethyl-1-buten-3-yl-1-amine], the “Delay of the appearance of the diarrhoea” value ([5]; 30 mg/kg i.p., co-administered with PGE2, mice) is given as “approximately 15 min”, the “Inhibitory effect on PGE2 diarrhoea by the oral route” value ([5]; 60 mg/kg oral route, mice) is given as “zero” and the ED50 [1] is given as 1.45 mg/kg. It also gave an ED50 [2] of 1.72 mg/kg and an ED50 [4] of 0.42 mg/kg.
With C(=C\c1ccccc1)/CC1CCCN1CC1CC1 (single isomer, unassigned; (-)) [Ex. 1.3, (−)E-2-cinnamyl-1-cyclopropylmethylpyrrolidine] the ED50 [4] was 0.002 mg/kg, the “Inhibition of diarrhoea (%)” value ([4]; dose 0.003 mg/kg p.o., mice, 0.003 mg/kg) was 63.8% and the “Inhibition of diarrhoea (%)” value ([4]; dose 0.01 mg/kg p.o., mice) was 78.8%. The “Inhibition of diarrhoea (%)” value ([4]; dose 0.03 mg/kg p.o., mice, 0.03 mg/kg) was 46.7%.
With C(=C\c1ccccc1)/CC1CCCCN1CC1CC1 (single isomer, unassigned; (-)) [Ex. 2A.3, (−)E-2-cinnamyl-1-cyclopropylmethyl-piperidine] the “Inhibition of diarrhoea (%)” value ([4]; dose 0.00003 mg/kg p.o., mice, 3e-05 mg/kg) was 45%, the “Inhibition of diarrhoea (%)” value ([4]; dose 0.0001 mg/kg p.o., mice) was 65.8% and the “Inhibition of diarrhoea (%)” value ([4]; dose 0.001 mg/kg p.o., mice, 0.001 mg/kg) was 36.8%.
For Clc1ccc(/C=C/CC2CCCCN2CC2CC2)cc1Cl (single isomer, unassigned; (-)) [eutomer (I), (−)E-2-(3,4-dichlorocinnamyl)-1-cyclopropylmethylpiperidine], the ED50 [1] was less than 0.001 mg/kg, the “Dose up to which no mortality was noted (strongest dose studied)” value [6] was no less than 300 mg/kg and the “Dose from which toxic symptoms were observed (none at lower doses)” value ([6]; respiratory depression, trembling, convulsions, prostration or lethargy, reversible in 24 hours) was no less than 100 mg/kg. The “Action on the transit” value (transit) was “without acting on the transit”, the ED50 [2] was 0.019 mg/kg and the ED50 [3] was 0.038 mg/kg. For the same compound, the “times more active than the racemate” value ([3]; rat, in vivo, po) was roughly 50 times, the ED50 [4] was 0.0056 mg/kg and the “Inhibition of diarrhoea (%)” value ([4]; dose 0.003 mg/kg p.o., mice, listed as compound of the invention, 0.003 mg/kg) was 46.1%. The “Inhibition of diarrhoea (%)” value ([4]; dose 0.01 mg/kg p.o., mice) was 59.7%, the “Inhibition of diarrhoea (%)” value ([4]; dose 0.03 mg/kg p.o., mice) was 59.5% and the “Inhibition of diarrhoea (%)” value ([4]; dose 0.1 mg/kg p.o., mice) was 69.5%. The “times more active than acetorphan” value ([4]; oral route, mice, diarrhoea caused by LPS) was “more than 6000 times” and the IC50 (sigma receptors) was 17.9 nM.
Compound CC(=O)SCC(Cc1ccccc1)C(=O)NCC(=O)OCc1ccccc1 (stereo not drawn) [acetorphan] has an ED50 [4] of 34 mg/kg.
Work on CN(C)C(=O)C(CCN1CCC(O)(c2ccc(Cl)cc2)CC1)(c1ccccc1)c1ccccc1 [loperamide] yielded an ED50 [1] of 4.27 mg/kg, an ED50 [2] of 3.92 mg/kg and an ED50 [4] of 0.37 mg/kg.
